Test results reported in patent US20090253687A1, “Fused Heterocyclic Compounds and Their Use as Mineralocorticoid Receptor Ligands” (priority 2005, published 2009).

melting point: 228 °C
Structure (SMILES): O=C1COc2ccc(C3=Cc4ccccc4[S+]([O-])C3c3ccccc3)cc2N1 (stereo not shown) [Example 22, 6-(1-oxido-2-phenyl-2H-thiochromen-3-yl)-2H-1,4-benzoxazin-3(4H)-one]
